Data on two compounds can be found in ChEMBL document CHEMBL5154746, “Antibacterial Activity of Metergoline Analogues: Revisiting the Ergot Alkaloid Scaffold for Antibiotic Discovery” (2022).

≈ marks a conversion by molar mass, not a printed value.

The MIC is the lowest concentration found to suppress growth.

Experiment [1] concerns Escherichia coli. Kind of experiment: Antibacterial activity against wild type Escherichia coli MG1655 harboring delta tolC mutant assessed as inhibition of bacterial growth by MOPS based broth microdilution assay. It is filed as functional. In general terms: Broth dilution looks for growth in wells or tubes with falling amounts of substance.
Experiment [2] relates to Salmonella typhimurium. In words: Antibacterial activity against Salmonella typhimurium harboring delta tolC mutant assessed as bacterial growth inhibition by Muller hinton broth based microdilution assay. The class given is functional, Salmonella enterica subsp. enterica serovar Typhimurium. The settings on record: Salmonella enterica.
For experiment [3], the system named is Escherichia coli. Kind of experiment: Antibacterial activity against wild type Escherichia coli MG1655 assessed as inhibition of bacterial growth by Muller hinton broth based microdilution assay. The class given is functional.
Experiment [4] deals with Salmonella typhimurium. Kind of experiment: Antibacterial activity against wild type Salmonella typhimurium SL1344 assessed as reduction in bacterial growth by Muller hinton broth based microdilution assay. The class given is functional, Salmonella enterica subsp. enterica serovar Typhimurium. The settings on record: Salmonella enterica.
Experiment [5] has as its system Bacillus subtilis. Kind of experiment: Antibacterial activity against Bacillus subtilis 168 assessed as inhibition of bacterial growth by Muller hinton broth based microdilution assay. It is filed as functional.
Experiment [6] relates to Escherichia coli. Kind of experiment: Antibacterial activity against wild type Escherichia coli MG1655 assessed as inhibition of bacterial growth by MOPS based broth microdilution assay. The class given is functional.
Experiment [7] concerns Staphylococcus aureus. Kind of experiment: Antibacterial activity against Methicillin-resistant Staphylococcus aureus USA300 assessed as inhibition of bacterial growth by Muller hinton broth based microdilution assay. It is filed as functional.
The test system of experiment [8] is Salmonella typhimurium. In words: Antibacterial activity against wild type Salmonella typhimurium SL1344 assessed as reduction in bacterial growth by ALM based microdilution assay. It is filed as functional, Salmonella enterica subsp. enterica serovar Typhimurium. To be noted: Salmonella enterica.
For experiment [9], the system named is Escherichia coli. In words: Antibacterial activity against wild type Escherichia coli MG1655 harboring delta tolC mutant assessed as inhibition of bacterial growth by Muller hinton broth based microdilution assay. The class given is functional.

Turning to `CN(C)CCCNC(=O)/C=C/c1ccc(C(F)(F)F)cc1`, the MIC is 128 µg/mL (≈ 426 µM) in experiment [1]; greater than 200 µg/mL in experiment [2]; greater than 200 µg/mL in experiment [3]; greater than 200 µg/mL in experiment [4]; greater than 200 µg/mL in experiment [5]; greater than 200 µg/mL in experiment [6]. For the same compound, the MIC in experiment [7] and in experiment [8] was greater than 200 µg/mL in each case.
Regarding `CN1C=C2C[C@@H]3[C@H](C[C@@H](CNC(=O)C4CC4c4ccccc4)CN3C)C3C=CC=C1C23` (some centres not stated), the minimal inhibitory concentration (MIC) is 10.2 µg/mL (≈ 24.6 µM) in experiment [1]; 64 µg/mL (≈ 154 µM) in experiment [9]; 64 µg/mL (≈ 154 µM) in [2]; greater than 200 µg/mL in experiment [3]; greater than 200 µg/mL in [4]; 64 µg/mL (≈ 154 µM) in [5]. Moreover, the MIC was greater than 200 µg/mL in experiment [6], 64 µg/mL (≈ 154 µM) in experiment [7] and 200 µg/mL (≈ 481 µM) in [8].
